Experimental data from PubChem BioAssay AID256 (DTP/NCI, 2004).
Several values for one entry are separate records, joined by “and”; a condition that tells them apart may be missing. Equal values may be shown once. Inconclusive results and toxic doses are left out.

System: CD2F1 mice, L1210 leukemia ip, survival T/C
Assay: NCI In Vivo Anticancer Drug Screen. Data for tumor model L1210 Leukemia (intraperitoneal) in CD2F1 (CDF1) mice
Conditions: higher = longer survival
Summary of the method: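 Tumor-bearing mice (transplanted tumor) were split into treated and vehicle control groups, and the measured endpoint of each treated group was divided by that of its vehicle controls.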

[1] = endpoint: mean survival time, dose: 50.0 mg/kg/injection, schedule: Q01DX009 (ip), vehicle: saline with Tween-80
[2] = endpoint: mean survival time, dose: 100.0 mg/kg/injection, schedule: Q01DX009 (ip), vehicle: saline with Tween-80
[3] = endpoint: mean survival time, dose: 200.0 mg/kg/injection, schedule: Q01DX009 (ip), vehicle: saline with Tween-80
[4] = endpoint: mean survival time, dose: 400.0 mg/kg/injection, schedule: Q01DX009 (ip), vehicle: saline with Tween-80
[5] = endpoint: mean survival time, dose: 25.0 mg/kg/injection, schedule: Q01DX009 (ip), vehicle: saline with Tween-80
[6] = endpoint: mean survival time, dose: 100.0 mg/kg/injection, schedule: Q04DX003 (ip), vehicle: saline with Tween-80
[7] = endpoint: mean survival time, dose: 200.0 mg/kg/injection, schedule: Q04DX003 (ip), vehicle: saline with Tween-80
[8] = endpoint: mean survival time, dose: 400.0 mg/kg/injection, schedule: Q04DX003 (ip), vehicle: saline with Tween-80

SMILES: CNC(=O)OCc1c(COC(=O)NC)c(-c2ccccc2)n(C)c1-c1ccccc1
- T/C (endpoint: mean survival time, dose: 3.12 mg/kg/injection, schedule: Q01DX009 (ip), vehicle: distilled water + Tween-80): 111 % of control
- T/C (endpoint: mean survival time, dose: 6.25 mg/kg/injection, schedule: Q01DX009 (ip), vehicle: distilled water + Tween-80): 111 % of control
- T/C (endpoint: mean survival time, dose: 50.0 mg/kg/injection, schedule: Q01DX009 (ip), vehicle: distilled water + Tween-80): 111 % of control

SMILES: CC[C@H]1CN2CCc3cc(OC)c(OC)cc3[C@@H]2C[C@@H]1C[C@H]1NCCc2cc(OC)c(OC)cc21
- T/C (endpoint: mean survival time, dose: 2.0 mg/kg/injection, schedule: Q01DX007 (ip), vehicle: Klucel (hydroxypropylcellulose) (HPC)): 107 % of control
- T/C (endpoint: mean survival time, dose: 2.0 mg/kg/injection, schedule: Q01DX009 (ip), vehicle: Klucel (hydroxypropylcellulose) (HPC)): 108 % of control
- T/C (endpoint: mean survival time, dose: 2.0 mg/kg/injection, schedule: Q02DX005 (ip), vehicle: saline): 93 % of control and 102 % of control
- T/C (endpoint: mean survival time, dose: 2.0 mg/kg/injection, schedule: Q03DX003 (ip), vehicle: Klucel (hydroxypropylcellulose) (HPC)): 110 % of control
- T/C (endpoint: mean survival time, dose: 2.0 mg/kg/injection, schedule: Q04DX003 (ip), vehicle: Klucel (hydroxypropylcellulose) (HPC)): 104 % of control
- T/C (endpoint: mean survival time, dose: 4.0 mg/kg/injection, schedule: Q01DX007 (ip), vehicle: Klucel (hydroxypropylcellulose) (HPC)): 118 % of control
- T/C (endpoint: mean survival time, dose: 4.0 mg/kg/injection, schedule: Q01DX009 (ip), vehicle: Klucel (hydroxypropylcellulose) (HPC)): 122 % of control
- T/C (endpoint: mean survival time, dose: 4.0 mg/kg/injection, schedule: Q02DX005 (ip), vehicle: saline): 104 % of control
- T/C (endpoint: mean survival time, dose: 4.0 mg/kg/injection, schedule: Q03DX003 (ip), vehicle: Klucel (hydroxypropylcellulose) (HPC)): 106 % of control
- T/C (endpoint: mean survival time, dose: 4.0 mg/kg/injection, schedule: Q04DX003 (ip), vehicle: Klucel (hydroxypropylcellulose) (HPC)): 104 % of control
- T/C (endpoint: mean survival time, dose: 8.0 mg/kg/injection, schedule: Q01DX007 (ip), vehicle: Klucel (hydroxypropylcellulose) (HPC)): 105 % of control
- T/C (endpoint: mean survival time, dose: 8.0 mg/kg/injection, schedule: Q01DX009 (ip), vehicle: Klucel (hydroxypropylcellulose) (HPC)): 101 % of control
- T/C (endpoint: mean survival time, dose: 8.0 mg/kg/injection, schedule: Q03DX003 (ip), vehicle: Klucel (hydroxypropylcellulose) (HPC)): 110 % of control
- T/C (endpoint: mean survival time, dose: 8.0 mg/kg/injection, schedule: Q04DX003 (ip), vehicle: Klucel (hydroxypropylcellulose) (HPC)): 110 % of control
- T/C (endpoint: mean survival time, dose: 25.0 mg/kg/injection, schedule: Q04DX003 (ip), vehicle: saline with Tween-80): 164 % of control and 195 % of control
- T/C (endpoint: mean survival time, dose: 30.0 mg/kg/injection, schedule: Q04DX003 (ip), vehicle: saline with Tween-80): 124 % of control
- T/C (endpoint: mean survival time, dose: 40.0 mg/kg/injection, schedule: Q04DX003 (ip), vehicle: saline with Tween-80): 95 % of control

SMILES: CCSc1nc(C)cc(Cl)n1
- T/C [1]: 102 % of control
- T/C [2]: 104 % of control
- T/C [3]: 105 % of control

SMILES: O=Cc1ccc(C=O)cc1
- T/C [2]: 104 % of control
- T/C [3]: 98 % of control
- T/C [4]: 96 % of control

SMILES: O=[N+]([O-])c1ccc(OCc2ccccc2)cc1
- T/C [2]: 98 % of control
- T/C [3]: 98 % of control
- T/C [4]: 98 % of control

SMILES: CN1CCC(c2ccccc2)(c2ccccc2)OC1
- T/C [5]: 106 % of control
- T/C [1]: 98 % of control
- T/C [2]: 110 % of control

SMILES: c1ccc(N/N=C(/CC/C(=N\Nc2ccccc2)c2ccccc2)c2ccccc2)cc1
- T/C (endpoint: mean survival time, dose: 100.0 mg/kg/injection, schedule: Q01DX001 (ip), vehicle: saline with Tween-80): 96 % of control
- T/C (endpoint: mean survival time, dose: 200.0 mg/kg/injection, schedule: Q01DX001 (ip), vehicle: saline with Tween-80): 96 % of control
- T/C (endpoint: mean survival time, dose: 400.0 mg/kg/injection, schedule: Q01DX001 (ip), vehicle: saline with Tween-80): 93 % of control

SMILES: CC1(C)C2C3C=CC(C3)C2S1(=O)=O (stereo not drawn)
- T/C (endpoint: mean survival time, dose: 1.25 mg/kg/injection, schedule: Q01DX009 (ip), vehicle: saline with Tween-80): 100 % of control
- T/C (endpoint: mean survival time, dose: 1.25 mg/kg/injection, schedule: Q04DX003 (ip), vehicle: saline with Tween-80): 110 % of control
- T/C (endpoint: mean survival time, dose: 2.5 mg/kg/injection, schedule: Q01DX001 (ip), vehicle: saline): 100 % of control
- T/C (endpoint: mean survival time, dose: 2.5 mg/kg/injection, schedule: Q01DX009 (ip), vehicle: saline with Tween-80): 101 % of control
- T/C (endpoint: mean survival time, dose: 2.5 mg/kg/injection, schedule: Q04DX003 (ip), vehicle: saline with Tween-80): 100 % of control
- T/C (endpoint: mean survival time, dose: 5.0 mg/kg/injection, schedule: Q01DX001 (ip), vehicle: saline): 100 % of control
- T/C (endpoint: mean survival time, dose: 5.0 mg/kg/injection, schedule: Q01DX009 (ip), vehicle: saline with Tween-80): 101 % of control
- T/C (endpoint: mean survival time, dose: 5.0 mg/kg/injection, schedule: Q04DX003 (ip), vehicle: saline with Tween-80): 107 % of control

SMILES: ClCCN(CCCl)CCCN1c2ccccc2Sc2ccc(Cl)cc21
- T/C (endpoint: mean survival time, dose: 18.0 mg/kg/injection, schedule: Q01DX001 (ip), vehicle: saline with Tween-80): 103 % of control
- T/C (endpoint: mean survival time, dose: 28.0 mg/kg/injection, schedule: Q01DX001 (ip), vehicle: saline with Tween-80): 100 % of control
- T/C (endpoint: mean survival time, dose: 40.0 mg/kg/injection, schedule: Q01DX001 (ip), vehicle: saline with Tween-80): 97 % of control
- T/C (endpoint: mean survival time, dose: 60.0 mg/kg/injection, schedule: Q01DX001 (ip), vehicle: saline with Tween-80): 103 % of control
- T/C (endpoint: mean survival time, dose: 90.0 mg/kg/injection, schedule: Q01DX001 (ip), vehicle: saline with Tween-80): 107 % of control
- T/C (endpoint: mean survival time, dose: 135.0 mg/kg/injection, schedule: Q01DX001 (ip), vehicle: saline with Tween-80): 112 % of control

SMILES: O=c1n(-c2ccccc2)c(=O)n2n1CC(c1ccccc1)=N2
- T/C (endpoint: mean survival time, dose: 12.5 mg/kg/injection, schedule: Q01DX009 (ip), vehicle: other): 97 % of control
- T/C (endpoint: mean survival time, dose: 25.0 mg/kg/injection, schedule: Q01DX009 (ip), vehicle: other): 100 % of control
- T/C (endpoint: mean survival time, dose: 50.0 mg/kg/injection, schedule: Q01DX009 (ip), vehicle: other): 97 % of control
- T/C (endpoint: mean survival time, dose: 100.0 mg/kg/injection, schedule: Q01DX009 (ip), vehicle: other): 103 % of control
- T/C (endpoint: mean survival time, dose: 200.0 mg/kg/injection, schedule: Q01DX009 (ip), vehicle: other): 96 % of control

SMILES: CC(=O)Oc1cccc(C(C)=O)c1
- T/C [6]: 102 % of control
- T/C [7]: 100 % of control
- T/C [8]: 104 % of control

SMILES: CCOc1ccccc1OC(=O)Nc1ccc(OC)cc1
- T/C [5]: 97 % of control
- T/C (endpoint: mean survival time, dose: 25.0 mg/kg/injection, schedule: Q04DX002 (ip), vehicle: saline with Tween-80): 114 % of control
- T/C [1]: 89 % of control
- T/C (endpoint: mean survival time, dose: 50.0 mg/kg/injection, schedule: Q04DX002 (ip), vehicle: saline with Tween-80): 104 % of control
- T/C [2]: 97 % of control
- T/C (endpoint: mean survival time, dose: 100.0 mg/kg/injection, schedule: Q04DX002 (ip), vehicle: saline with Tween-80): 94 % of control and 107 % of control
- T/C (endpoint: mean survival time, dose: 400.0 mg/kg/injection, schedule: Q04DX002 (ip), vehicle: saline with Tween-80): 98 % of control

SMILES: COc1cc2c(cc1OC)C1CC(=O)C(CC(C)C)CN1CC2 (stereo not drawn)
- T/C [6]: 96 % of control
- T/C [7]: 88 % of control
- T/C [8]: 100 % of control

SMILES: CC[C@@]1(OC(=O)C(N)CCC(=O)O)C(=O)OCc2c1cc1n(c2=O)Cc2cc3ccccc3nc2-1 (stereo partly drawn)
- T/C (endpoint: median survival time, dose: 6.85 mg/kg/injection, schedule: Q04DX002 (ip), vehicle: water): 107 % of control and 108 % of control
- T/C (endpoint: median survival time, dose: 10.27 mg/kg/injection, schedule: Q04HX004 (iv), vehicle: water): 120 % of control and 111 % of control
- T/C (endpoint: median survival time, dose: 13.69 mg/kg/injection, schedule: Q04DX002 (ip), vehicle: water): 113 % of control
- T/C (endpoint: median survival time, dose: 27.39 mg/kg/injection, schedule: Q04DX002 (ip), vehicle: water): 122 % of control
- T/C (endpoint: median survival time, dose: 41.08 mg/kg/injection, schedule: Q04HX004 (iv), vehicle: water): 184 % of control and 197 % of control
- T/C (endpoint: median survival time, dose: 54.78 mg/kg/injection, schedule: Q04DX002 (ip), vehicle: water): 154 % of control and 170 % of control
- T/C (endpoint: median survival time, dose: 54.78 mg/kg/injection, schedule: Q04HX004 (iv), vehicle: water): 204 % of control and 211 % of control
- T/C (endpoint: median survival time, dose: 109.6 mg/kg/injection, schedule: Q04DX002 (ip), vehicle: water): 208 % of control

SMILES: Cc1cc2c(=O)c(C)c[nH]c2cc1Cl
- T/C (endpoint: mean survival time, dose: 50.0 mg/kg/injection, schedule: Q01DX009 (ip), vehicle: Klucel (hydroxypropylcellulose) (HPC)): 89 % of control
- T/C (endpoint: mean survival time, dose: 100.0 mg/kg/injection, schedule: Q01DX009 (ip), vehicle: Klucel (hydroxypropylcellulose) (HPC)): 86 % of control

SMILES: CCCCCC(=O)N1CCCCCC1
- T/C (endpoint: mean survival time, dose: 100.0 mg/kg/injection, schedule: Q04DX003 (ip), vehicle: saline): 96 % of control
- T/C (endpoint: mean survival time, dose: 200.0 mg/kg/injection, schedule: Q04DX003 (ip), vehicle: saline): 98 % of control
- T/C (endpoint: mean survival time, dose: 400.0 mg/kg/injection, schedule: Q04DX003 (ip), vehicle: saline): 98 % of control

SMILES: Nc1cccnc1
- T/C (endpoint: mean survival time, dose: 5.0 mg/kg/injection, schedule: Q04DX003 (ip), vehicle: saline): 92 % of control
- T/C (endpoint: mean survival time, dose: 10.0 mg/kg/injection, schedule: Q04DX003 (ip), vehicle: saline): 94 % of control
- T/C (endpoint: mean survival time, dose: 20.0 mg/kg/injection, schedule: Q04DX003 (ip), vehicle: saline): 94 % of control
